Assay results taken from US9777301B2, “Method for producing optically active amine compounds by deracemization” (INDUSTRY-ACADEMIC COOPERATION FOUNDATION, YONSEI UNIVERSITY, priority 2012, dated 2017).
Entries after “also recorded” stand apart in the source; their conditions may differ. Marks after values point to notes of the source that are not given here.

What was measured:
[1] = test system: (S)-selective ω-transaminase derived from P. denitrificans; experiment: Substrate specificity of (S)-selective ω-transaminase toward keto acids; assay type: biochemical, Paracoccus denitrificans; conditions: for Acetophenone (mM) P. denitrificans: keto acid 20 mM, (S)-α-methylbenzylamine 20 mM, 50 mM potassium phosphate pH 7, 37° C., 10 min
Method: (§1) The substrate specificity of the (S)-selective ω-transaminase was confirmed in each keto acid (20 mM), (S)-α-methylbenzylamine (20 mM) and potassium phosphate (50 mM, pH 7). After the reactions were carried out at 37° C. for 10 min, the amounts of acetophenone produced were measured.

[2] = test system: (S)-selective ω-transaminase derived from O. anthropi; experiment: as above; assay type: biochemical, Ochrobactrum anthropi; conditions: for Activity of (S)-selective ω-transaminase toward keto acid (in words): Table 9, speaks of the (S)-selective ω-transaminase without naming O. anthropi or P. denitrificans; for Acetophenone (mM) O. anthropi: keto acid 20 mM, (S)-α-methylbenzylamine 20 mM, 50 mM potassium phosphate pH 7, 37° C., 10 min
Method: as §1

[3] = test system: D-amino acid transaminase; experiment: Substrate specificity of purified D-amino acid transaminase toward keto acids (amino acceptors); assay type: biochemical, Bacillus sphaericus; conditions: for Activity of D-amino acid transaminase toward amino acceptor (in words): Tables 7 and 8; for Pyruvate (mM) generated: D-alanine 20 mM as amino donor
Method: Each of amino acceptors shown in Tables 7 and 8 and D-alanine or D-homoalanine as substrates were allowed to react with the D-amino acid transaminase purified in Example 7. Specifically, each amino acceptor (20 mM), D-alanine or D-homoalanine (20 mM), and potassium phosphate (50 mM, pH 7) were allowed to react with 0.1 U/ml of the D-amino acid transaminase at 37° C. for 10 min, and the amount of a keto acid (pyruvate or 2-oxobutyrate) generated was measured.

[4] = test system: (S)-selective ω-transaminase derived from O. anthropi; experiment: Substrate specificity of ω-transaminase toward 11 racemic amines (initial rate, relative reactivity); assay type: biochemical, Ochrobactrum anthropi; conditions: for Relative reactivity (%): PLP 0.1 mM, 10 min, activity toward α-methylbenzylamine defined as 100%; for Activity toward (S)-1-aminoindane relative to (S)-α-methylbenzylamine: (S)-enantiomer compared with (S)-α-methylbenzylamine, value in parentheses in Table 13
Method: An investigation was made as to the substrate specificities of the (S)-selective ω-transaminase derived from O. anthropi, which was purified in Example 7, toward 11 amines: α-methylbenzylamine 1a, 4-fluoro-α-methylbenzylamine 1b, α-ethylbenzylamine 1c, 1-methyl-3-phenylpropylamine 1d, 1-aminoindane 1e, sec-butylamine 1f, cyclopropylethylamine 1g, 2-aminopentane 1h, 2-aminooctane 1i, 1-methoxy-2-propylamine 1j, and alaninol 1k. 0.125 U/ml of the (S)-selective transaminase derived from O. anthropi was added to each racemic amine (10 mM), pyruvate (10 mM), PLP (0.1 mM), and phosphate buffer (50 mM, pH 7.5) at 37° C. After the mixture was allowed to react for 10 min, the amount of L-alanine produced was measured via GITC derivatization. All activities were measured in the initial reaction rate range of ≦5% conversion. The initial reaction rate for α-methylbenzylamine was measured to be 0.033 mM/min. When the activity of the ω-transaminase toward α-methylbenzylamine was defined as 100%, the activities of the ω-transaminase toward 4-fluoro-α-methylbenzylamine 1b, α-ethylbenzylamine 1c, 1-methyl-3-phenylpropylamine 1d, and 1-aminoindane 1e as arylalkylamines were 91%, 18%, 70%, and 64%, respectively. The activity of the ω-transaminase toward (S)-1-aminoindane was 153% of that toward (S)-α-methylbenzylamine. The activities of the ω-transaminase toward sec-butylamine 1f, cyclopropylethylamine 1g, 2-aminopentane 1h, 2-aminooctane 1i, 1-methoxy-2-propylamine 1j, and alaninol 1k as alkylamines were 54%, 63%, 29%, 146%, 60%, and 63%, respectively.

[5] = test system: (S)-selective ω-transaminase derived from O. anthropi; assay type: biochemical, Ochrobactrum anthropi; conditions: for Activity of (S)-selective ω-transaminase toward amine (in words): Table 10, speaks of the (S)-selective ω-transaminase without naming O. anthropi or P. denitrificans; for L-alanine (mM) O. anthropi: amine 20 mM (40 mM racemic sec-butylamine), pyruvate as acceptor, 50 mM potassium phosphate pH 7, 37° C., 10 min
Method: (§2) The substrate specificity of the (S)-selective ω-transaminase was confirmed in each amine (20 mM), (S)-amine (20 mM, in 40 mM racemic sec-butylamine) and potassium phosphate (50 mM, pH 7). After the reactions were carried out at 37° C. for 10 min, the amounts of L-alanine produced were measured.

[6] = test system: (S)-selective ω-transaminase derived from P. denitrificans; experiment: Substrate specificity of (S)-selective ω-transaminase toward amines (L-alanine from pyruvate); assay type: biochemical, Paracoccus denitrificans; conditions: amine 20 mM (40 mM racemic sec-butylamine), pyruvate as acceptor, 50 mM potassium phosphate pH 7, 37° C., 10 min
Method: as §2

[7] = test system: D-amino acid transaminase; experiment: Effect of L-amino acid concentration on activity of D-amino acid transaminase; assay type: biochemical, Bacillus sphaericus; conditions: 0-20 mM L-homoalanine in 20 mM D-homoalanine, 20 mM pyruvate, pH 7, 37° C., 10 min; 2-oxobutyrate measured
Method: For continuous deracemization of a racemic amino acid with the D-amino acid transaminase purified in Example 7, L-amino acid as a final product should not affect the activity of the D-amino acid transaminase. Deterioration in the activity of the enzyme by the final product makes it difficult to induce continuous reactions. The activities of the D-amino acid transaminase were confirmed at different concentrations (0, 1, 3, 5, 7, 10, 15, and 20 mM) of L-homoalanine in 20 mM D-homoalanine, 20 mM pyruvate, and 50 mM potassium phosphate (pH 7). After the reactions were carried out at 37° C. for 10 min, the amounts of 2-oxobutyrate produced were measured.

[8] = amino acceptor 20 mM, 0.1 U/ml enzyme, 50 mM potassium phosphate pH 7, 37° C., 10 min
[9] = racemic amine 10 mM, pyruvate 10 mM, 0.125 U/ml enzyme, pH 7.5, 37° C.

Compound: CCC(=O)C(=O)O [2-Oxobutyrate]
- Acetophenone (mM) P. denitrificans [1]: 0.821 mM
- Activity of (S)-selective ω-transaminase toward keto acid (in words) [2]: have activity
- Acetophenone (mM) O. anthropi [2]: 0.173 mM
- Activity of D-amino acid transaminase toward amino acceptor (in words) [3]: have activity
- Pyruvate (mM) generated [3, 8]: 1.375 mM

Compound: CC(N)c1ccc(F)cc1 (racemic) [Substrate 1b, 4-fluoro-α-methylbenzylamine]
- Relative reactivity (%) [4, 9]: 91%

Compound: CCCC(C)N (racemic) [Substrate 1h, 2-aminopentane]
- Relative reactivity (%) [4, 9]: 29%

Compound: O=C(O)C(=O)C12CC3CC(CC(O)(C3)C1)C2 [2-(3-Hydroxy-1-adamantyl)-oxoethanoate]
- Acetophenone (mM) P. denitrificans [1]: -0.004 mM
- Acetophenone (mM) O. anthropi [2]: -0.002 mM
- Pyruvate (mM) generated [3, 8]: 0.000 mM

Compound: O=CC(=O)Oc1ccccc1 [Phenyl glyoxylate]
- Acetophenone (mM) P. denitrificans [1]: -0.008 mM
- Acetophenone (mM) O. anthropi [2]: -0.005 mM
- Pyruvate (mM) generated [3, 8]: 0.000 mM

Compound: CCCCC(=O)C(=O)O [2-Ketohexanoate]
- Acetophenone (mM) P. denitrificans [1]: 0.713 mM
- Activity of (S)-selective ω-transaminase toward keto acid (in words) [2]: have activity
- Acetophenone (mM) O. anthropi [2]: 0.006 mM
- Activity of D-amino acid transaminase toward amino acceptor (in words) [3]: have activity
- Pyruvate (mM) generated [3, 8]: 0.531 mM

Compound: O=C(O)C(=O)CO [β-Hydroxypyruvate]
- Acetophenone (mM) P. denitrificans [1]: 0.066 mM
- Activity of (S)-selective ω-transaminase toward keto acid (in words) [2]: have activity
- Acetophenone (mM) O. anthropi [2]: 0.183 mM
- Activity of D-amino acid transaminase toward amino acceptor (in words) [3]: have activity
- Pyruvate (mM) generated [3, 8]: 0.079 mM

Compound: CCC(N)c1ccccc1 (racemic) [Substrate 1c, α-ethylbenzylamine]
- Relative reactivity (%) [4, 9]: 18%

Compound: O=C(O)CCC(=O)C(=O)O [α-Ketoglutarate]
- Acetophenone (mM) P. denitrificans [1]: -0.003 mM
- Activity of (S)-selective ω-transaminase toward keto acid (in words) [2]: no activity
- Acetophenone (mM) O. anthropi [2]: -0.001 mM
- Activity of D-amino acid transaminase toward amino acceptor (in words) [3]: have activity; also recorded: had activity
- Pyruvate (mM) generated [3, 8]: 0.971 mM

Compound: COCC(C)N (racemic) [Substrate 1j, 1-methoxy-2-propylamine]
- Relative reactivity (%) [4, 9]: 60%

Compound: CC(N)CO (stereo not drawn) [Substrate 1k, alaninol]
- Relative reactivity (%) [4, 9]: 63%

Compound: CC(C)N [Isopropylamine]
- Activity of (S)-selective ω-transaminase toward amine (in words) [5]: have activity
- L-alanine (mM) O. anthropi [5]: 0.309 ± 0.050 mM
- L-alanine (mM) P. denitrificans [6]: 0.033 ± 0.002 mM

Compound: CC(N)CCc1ccccc1 (racemic) [Substrate 1d, 1-methyl-3-phenylpropylamine]
- Relative reactivity (%) [4, 9]: 70%

Compound: CC(N)c1ccccc1 (racemic) [Substrate 1a, α-methylbenzylamine]
- Relative reactivity (%) [4, 9]: 100^c %
- Initial reaction rate ([4]; racemic amine 10 mM, pyruvate 10 mM, 0.125 U/ml enzyme, pH 7.5, 37° C., ≦5% conversion): 0.033 mM/min

Compound: CCCC(=O)C(=O)O [2-Oxopentanoate]
- Acetophenone (mM) P. denitrificans [1]: 1.032 mM
- Activity of (S)-selective ω-transaminase toward keto acid (in words) [2]: have activity
- Acetophenone (mM) O. anthropi [2]: 0.078 mM
- Activity of D-amino acid transaminase toward amino acceptor (in words) [3]: have activity
- Pyruvate (mM) generated [3, 8]: 0.882 mM
- 2-Oxobutyrate (mM) generated ([3]; amino acceptor 20 mM, D-homoalanine 20 mM as amino donor, 0.1 U/ml enzyme, 50 mM potassium phosphate pH 7, 37° C., 10 min): 0.651 mM

Compound: O=CC(=O)O [Glyoxylate]
- Acetophenone (mM) P. denitrificans [1]: 1.076 mM
- Activity of (S)-selective ω-transaminase toward keto acid (in words) [2]: have activity
- Acetophenone (mM) O. anthropi [2]: 1.733 mM

Compound: O=C(O)C(=O)CF [Fluoropyruvate]
- Acetophenone (mM) P. denitrificans [1]: 0.339 mM
- Activity of (S)-selective ω-transaminase toward keto acid (in words) [2]: have activity
- Acetophenone (mM) O. anthropi [2]: 0.554 mM
- Activity of D-amino acid transaminase toward amino acceptor (in words) [3]: have activity
- Pyruvate (mM) generated [3, 8]: 0.053 mM

Compound: O=C(O)C(=O)CS [Mercaptopyruvate]
- Acetophenone (mM) P. denitrificans [1]: 0.008 mM
- Acetophenone (mM) O. anthropi [2]: 0.012 mM
- Activity of D-amino acid transaminase toward amino acceptor (in words) [3]: have activity
- Pyruvate (mM) generated [3, 8]: 0.022 mM

Compound: CC(C)C(=O)C(=O)O [3-Methyl-2-oxobutyrate]
- Acetophenone (mM) P. denitrificans [1]: -0.002 mM
- Acetophenone (mM) O. anthropi [2]: -0.001 mM
- Activity of D-amino acid transaminase toward amino acceptor (in words) [3]: have activity
- Pyruvate (mM) generated [3, 8]: 0.014 mM

Compound: CCC(C)N (racemic) [Substrate 1f, sec-butylamine]
- Activity of (S)-selective ω-transaminase toward amine (in words) [5]: have activity
- L-alanine (mM) O. anthropi [5]: 0.164 ± 0.019 mM
- L-alanine (mM) P. denitrificans [6]: 0.000 ± 0.000 mM
- Relative reactivity (%) [4, 9]: 54%

Compound: N[C@H]1CCc2ccccc21 [(S)-1-aminoindane]
- Activity toward (S)-1-aminoindane relative to (S)-α-methylbenzylamine [4]: 153%

Compound: CCC(C)C(=O)C(=O)O (stereo not drawn) [3-Methyl-2-oxopentanoate]
- Acetophenone (mM) P. denitrificans [1]: -0.004 mM
- Acetophenone (mM) O. anthropi [2]: 0.001 mM

Compound: CC[C@H](N)C(=O)O [L-homoalanine]
- Effect of L-amino acid on activity of D-amino acid transaminase (FIG. 1) [7]: did not lose its activity

Compound: CC(C)CC(=O)C(=O)O [4-Methyl-2-oxopentanoate]
- Activity of (S)-selective ω-transaminase toward keto acid (in words) ([1]; Table 9, marked (P. denitrificans)): have activity
- Acetophenone (mM) P. denitrificans [1]: 0.175 mM
- Acetophenone (mM) O. anthropi [2]: 0.005 mM
- Activity of D-amino acid transaminase toward amino acceptor (in words) [3]: have activity
- Pyruvate (mM) generated [3, 8]: 0.073 mM

Compound: NC1CCc2ccccc21 (racemic) [Substrate 1e, 1-aminoindane]
- Activity toward (S)-1-aminoindane relative to (S)-α-methylbenzylamine [4]: 153%
- Relative reactivity (%) [4, 9]: 64%

Compound: CC(C)(C)C(=O)C(=O)O [Trimethylpyruvate]
- Acetophenone (mM) P. denitrificans [1]: -0.004 mM
- Acetophenone (mM) O. anthropi [2]: -0.002 mM
- Pyruvate (mM) generated [3, 8]: 0.000 mM

Compound: CCCCCCC(C)N (racemic) [Substrate 1i, 2-aminooctane]
- Relative reactivity (%) [4, 9]: 146%

Compound: C[C@H](N)c1ccccc1 [(S)-α-methylbenzylamine]
- Activity of (S)-selective ω-transaminase toward amine (in words) [5]: have activity
- L-alanine (mM) O. anthropi [5]: 0.715 ± 0.082 mM
- L-alanine (mM) P. denitrificans [6]: 0.451 ± 0.077 mM
